# Measurements taken from patent US20240124442A1, “TRICYCLIC-AMIDO-BICYCLIC PRMT5 INHIBITORS” (AMGEN INC., priority 2021, published 2024).
# How the values were obtained:
# HCT116 MTAP null cells = experiment: HCT116 MTAP null cell line proliferation / cell viability (CellTiter-Glo, 6 days); format: cell-based; conditions: 144 h; HCT116 MTAP null cells, 6 days treatment, CellTiter-Glo cell viability; read-out: HCT-116 MTAP null IC50
# How it was run: (§1)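 Viability read by CellTiter-Glo luminescence after 6 days of compound treatment of HCT116 WT and MTAP-null cells (RPMI 1640, 10% FBS). Dose series were 1:3 steps from 1 or 10 μM (8–9 points), or 1:2 steps from 10 or 50 μM (22 points). IC50 from 4-parameter logistic or fixed-slope sigmoidal fit.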
# HCT116 WT cells = experiment: HCT116 WT (parent) cell line proliferation / cell viability (CellTiter-Glo, 6 days); format: cell-based; conditions: Homo sapiens, HCT-116, 144 h, 6 days treatment
# How it was run: as §1
IC50 (HCT116 MTAP null cells) [nM],IC50 (HCT116 WT cells) [nM],Structure (SMILES)
19,471,"CCN(C(=O)c1cc2c(cc1C)nc(N)c1c2cnn1C)[C@@H]1COCc2nc(C(F)(F)F)ccc21 [Example 307, 4-amino-N-ethyl-3,7-dimethyl-N-((5S)-2-(trifluoromethyl)-5,8-dihydro-6H-pyrano[3,4-b]-pyridin-5-yl)-3H-pyrazolo-[3,4-c]quinoline-8-carboxamide]"
76,4130,"Cc1n[nH]c2c1c(N)nc1ccc(C(=O)N(C)[C@@H]3COCc4nc(C(F)(F)F)ccc43)cc12 [Example 308, 4-amino-N,3-dimethyl-N-((5S)-2-(trifluoromethyl)-5,8-dihydro-6H-pyrano[3,4-b]pyridin-5-yl)-1H-pyrazolo[4,3-c]quinoline-8-carboxamide]"
150,9590,"Cc1nn(C)c2c1c(N)nc1ccc(C(=O)N(C)[C@@H]3COCc4nc(C(F)(F)F)ccc43)cc12 [Example 309, 4-amino-N,1,3-trimethyl-N-((5S)-2-(trifluoromethyl)-5,8-dihydro-6H-pyrano[3,4-b]pyr-idin-5-yl)-1H-pyrazolo[4,3-c]-quinoline-8-carboxamide]"
110,7380,"Cc1n[nH]c2c1c(N)nc1cnc(C(=O)N(C)[C@@H]3COCc4nc(C(F)(F)F)ccc43)cc12 [Example 310, 4-amino-N,3-dimethyl-N-((5S)-2-(trifluoromethyl)-5,8-dihydro-6H-pyrano[3,4-b]pyridin-5-yl)-1H-pyrazolo-[4,3-c][1,7]naphthyridine-8-carboxamide]"
30,1020,"Cc1nn(C)c2c1c(N)nc1cnc(C(=O)N(C)[C@@H]3COCc4cc(C(F)(F)F)ccc43)cc12 [Example 311, 4-amino-N,1,3-trimethyl-N-((4S)-7-(trifluoromethyl)-3,4-dihydro-1H-2-benzopyran-4-yl)-1H-pyrazolo[4,3-c][1,7]-naphthyridine-8-carboxamide]"
103,9480,"Cc1nn(C)c2c1c(N)nc1cnc(C(=O)N(C)[C@@H]3COCc4nc(C(F)(F)F)ccc43)cc12 [Example 312, 4-amino-N,1,3-trimethyl-N-((5S)-2-(trifluoromethyl)-5,8-dihydro-6H-pyrano[3,4-b]-pyridin-5-yl)-1H-pyrazolo-[4,3-c][1,7]naphthyridine-8-carboxamide]"
14,523,"Cc1nn(C)c2c1c(N)nc1cc(F)c(C(=O)N(C)[C@@H]3COCc4cc(C(F)(F)F)ccc43)cc12 [Example 313, 4-amino-7-fluoro-N,1,3-trimeth-yl-N-((4S)-7-(trifluoromethyl)-3,4-dihydro-1H-2-benzopyran-4-yl)-1H-pyrazolo[4,3-c]quin-oline-8-carboxamide]"
41,2630,"Cc1nn(C)c2c1c(N)nc1cc(F)c(C(=O)N(C)[C@@H]3COCc4nc(C(F)(F)F)ccc43)cc12 [Example 314, 4-amino-7-fluoro-N,1,3-trimeth-yl-N-((5S)-2-(trifluoromethyl)-5,8-dihydro-6H-pyrano[3,4-b]-pyridin-5-yl)-1H-pyrazolo[4,3-c]quinoline-8-carboxamide]"
508,13400,"CN(C(=O)c1ccc2nc(N)c(I)cc2c1)[C@@H]1COCc2nc(C(F)(F)F)ccc21 [Example 315, 2-amino-3-iodo-N-methyl-N-((5S)-2-(trifluoromethyl)-5,8-dihydro-6H-pyrano[3,4-b]pyridin-5-yl)-6-quinoline-carboxamide]"
26,1720,"Cc1cc2nc(N)c3cnn(C)c3c2cc1C(=O)N(C)C1CCOCc2nc(C(F)(F)F)ccc21 [Example 316, 4-amino-N,1,7-trimethyl-N-(5R)-2-(trifluoromethyl)-5,6,7,9-tetrahydrooxepino[3,4-b]pyridin-5-yl)-1H-pyrazolo-[4,3-c]quinoline-8-carboxamide and 4-amino-N,1,7-trimethyl-N-((5S)-2-(trifluoromethyl)-5,6,7,9-tetrahydrooxepino[3,4-b]pyridin-5-yl)-1H-pyrazolo-[4,3-c]quinoline-8-carboxamide]"
9,200,"Nc1nc2cc(Cl)c(C(=O)N(C3CC3)[C@@H]3COc4cc(C(F)(F)F)ccc43)cc2c2c1COC2 [Example 442, (S)-4-amino-7-chloro-N-cyclopropyl-N-(6-(trifluoromethyl)-2,3-dihydrobenzofuran-3-yl)-1,3-dihydrofuro[3,4-c]quinoline-8-carboxamide]"
433,3460,"Nc1nc2cc(Cl)c(C(=O)N(C3CC3)[C@H]3COc4cc(C(F)(F)F)ccc43)cc2c2c1COC2 [Example 443, 4-amino-7-chloro-N-cyclopropyl-N-((3R)-6-(trifluoromethyl)-2,3-dihydro-1-benzofuran-3-yl)-1,3-dihydrofuro[3,4-c]quinoline-8-carboxamide]"
864,36000,"CN(C(=O)c1ccc2nc(N)c3c(c2c1)COC3)[C@@H]1COc2cc(S(C)(=N)=O)ccc21 (stereo partly drawn) [Example 446, 4-amino-N-methyl-N-((3S)-6-(S-methylsulfonimidoyl)-2,3-dihydro-1-benzofuran-3-yl)-1,3-dihydrofuro[3,4-c]quinoline-8-carboxamide]"
58,3710,"Nc1nc2ccc(C(=O)N(C3CC3)[C@@H]3COc4cc(C(F)(F)F)ccc43)cc2c2c1COC2 [Example 448, 4-amino-N-cyclopropyl-N-((3S)-6-(trifluoromethyl)-2,3-dihydro-1-benzofuran-3-yl)-1,3-dihydrofuro[3,4-c]quinoline-8-carboxamide]"
5180,9520,"CCN(C(=O)c1ccc2nc(N)c3c(c2c1)COC3)c1coc2cc(C(F)(F)F)ccc12 [Example 451, 4-amino-N-ethyl-N-(6-(trifluoromethyl)-1-benzofuran-3-yl)-1,3-dihydrofuro[3,4-c]quinoline-8-carboxamide]"
173,13400,"CN(C(=O)c1cc2c3c(c(N)nc2cn1)COC3)[C@@H]1COc2cc(F)c(F)cc21 [Example 452, 4-amino-N-((3S)-5,6-difluoro-2,3-dihydro-1-benzofuran-3-yl)-N-methyl-1,3-dihydrofuro[3,4-c][1,7]naphthyridine-8-carboxamide]"
63,3770,"CN(C(=O)c1cc2c3c(c(N)nc2cn1)COC3)[C@@H]1COc2cc(-c3cnn(C(F)(F)F)c3)ccc21 [Example 457, 4-amino-N-methyl-N-((3S)-6-(1-(trifluoromethyl)-1H-pyrazol-4-yl)-2,3-dihydro-1-benzofuran-3-yl)-1,3-dihydrofuro[3,4-c][1,7]naphthyridine-8-carboxamide]"
237,11700,"CN(C(=O)c1cc2c3c(c(N)nc2cc1F)COC3)[C@@H]1COc2cc(S(C)(=N)=O)ccc21 (stereo partly drawn) [Example 462, 4-amino-7-fluoro-N-methyl-N-((3S)-6-(S-methylsulfonimidoyl)-2,3-dihydro-1-benzofuran-3-yl)-1,3-dihydrofuro[3,4-c]quinoline-8-carboxamide]"
9,245,"C[C@H]1OCc2c1c(N)nc1cc(F)c(C(=O)N(C)[C@@H]3COc4cc(C(F)(F)F)ccc43)cc21 [Example 466, (3R)-4-amino-7-fluoro-N,3-dimethyl-N-((3S)-6-(trifluoromethyl)-2,3-dihydro-1-benzofuran-3-yl)-1,3-dihydrofuro[3,4-c]quinoline-8-carboxamide]"
